# Test results from patent US5137918A, “N-(2'-aminophenyl)-benzamide derivatives process for the preparation thereof and pharmaceutical compositions containing them” (priority 1986, dated 1992).
# Entries after “also recorded” stand apart in the source; their conditions may differ.
# Key:
# [1] = test system: mammary adenocarcinoma 16C tumor cells; experiment: Mamma Adenocarcinoma 16C Cytotoxicity Assay; format: cell-based; details: ID50 ≤250 μg/mL assessed as cytostatically active
# Procedure: (§1) 4-Acetamino-N-(2'-aminophenyl) benzamide was used as an example of a compound according to the present invention and compared with […] as standard, the outstanding inhibition action of which against various experimental tumors in vitro and in vivo is known. The testing was carried out in vivo with SD-rats against MNU-induced mammary adenocarcinoma and acetoxymethylmethylnitrosamine-induced (AMMN-induced) colon adenocarcinoma. The testing was carried out in vitro in the "colorimetric-cytotoxicity assay" using L1210 and mammary adenocarcinoma 16C tumor cells. In this test system, substances with ID50 values of ≤250 μg/mL are assessed as being cytostatically active.
# L1210 tumor cells = experiment: L1210 Colorimetric Cytotoxicity Assay; format: cell-based; details: for IC50: Mus musculus, L1210, ID50 ≤250 μg/mL assessed as cytostatically active
# Procedure: as §1
# [2] = test system: methylnitrosurea-induced (MNU-induced) mammary adenocarcinoma; experiment: MNU-induced mammary adenocarcinoma in SD rats; format: in vivo, female SD rats
# Procedure: FIGS. 5 and 6 show the antineoplastic effect of compounds A, B, C at equimolar doses (33 μmol/kg/day); is control; Δ is compound C (8.0 mg/kg), .smallcircle. is compound B (7.5 mg/kg), and .quadrature. is compound A (8.9 mg/kg).
# as §1
# The in vivo activity of 4-acetamino-N-(2'-aminophenyl)-benzamide was tested against primary mammary adenocarcinoma induced by 3 single IV administrations of methylnitrosurea on Days 50, 71, and 92 following birth in female SD rats. As soon as tumor volumes ≥0.8 cm^3 were reached, test animals were randomized and therapy was started. […] Median tumor volumes and numbers were determined weekly and compared with untreated controls.
# [3] = Pharmacokinetic experiments on rats (plasma level, AUC, half-life, bioavailability); format: in vivo
# Procedure: FIG. 1 is the AUC, rat, after administration of 4-acetamino-N-(2'-aminophenyl)benzamide. The * is intragastral administration (2 mg/kg; 10 mg/kg; 50 mg/kg). The * is intravenous administration (10 mg/kg).
# In FIG. 2 the average plasma level of 4-amino-N-(2'-aminophenyl)-benzamide in rats after single administration of 10 mg/kg intragastrally (n=4).
# The bioavailability of the active material according to the present invention is 100%. […] This is shown graphically in FIG. 1 of the accompanying drawings.
# [4] = Acute intragastral toxicity (LD50), 7-day observation; format: in vivo; details: male mice
# [5] = test system: acetoxymethylmethylnitrosamine-induced (AMMN-induced) colon adenocarcinoma; experiment: AMMN-induced colon adenocarcinoma in SD rats; format: in vivo, Male SD-rats; details: for antineoplastic effect (in words): 10-week treatment, 5 days per week
# Procedure: as §1
# The activity of the compounds A, B, and C was tested in vivo against AMMN-induced colon adenocarcinoma. Male SD-rats were given 2 mg/kg/week acetoxymethylmethylnitrosamine (AMMN) intrarectally for a period of 10 weeks for tumor induction. Animals with manifest tumors were assigned randomly to the test groups.
# ^a Application via gastric tube, 5 days per week
# The animals were examined twice daily. After the 10-week treatment period, the animals were sacrificed and a total necropsy performed. All tumors were individually measured and their volumes added to a total tumor volume.
compound,measurement,setting,value
Nc1ccccc1NC(=O)c1ccc(NC(=O)CCO)cc1 [4-(β-hydroxypropionylamino)-N-(2'-aminophenyl)-benzamide],IC50,[1],0.77 mg/L
"CNc1ccc(C(=O)Nc2ccccc2N)cc1 [Compound C, 4-Methylamino-N-(2'-aminophenyl)-benzamide, reference compound]",IC50,L1210 tumor cells,4.04 mg/L
CC(C)C(=O)Nc1ccc(C(=O)Nc2ccccc2N)cc1 [4-isobutyrylamino-N-(2'-aminophenyl)-benzamide],IC50,[1],0.32 mg/L
"CC(=O)Nc1ccc(C(=O)Nc2ccccc2N)cc1 [Compound A, 4-Acetamino-N-(2'-aminophenyl)-benzamide]",IC50,[1],0.73 mg/L
same,antineoplastic effect at equimolar doses (in words),"[2]; 33 μmol/kg/day, A 8.9, B 7.5, C 8.0 mg/kg",shows the highest antineoplastic effect
same,"tumor growth, dose dependence and inhibition (in words)","[2]; FIG. 4, 7.5, 10, 12.5 mg/kg intragastrally, 5 times/week for 5 weeks",affects tumor growth in a dose-dependent manner with almost complete tumor growth inhibition in the highest dose group
same,IC50,L1210 tumor cells,3.75 mg/L
same,cytostatic activity (in words),"L1210 tumor cells; Table 1: L1210 and mammary adenocarcinoma 16C, versus comparison standard",acts outstandingly cytostatically; also recorded: about the same or better as that of the comparison standard
same,half-life,"[3]; rat, in vivo",4.2 to 4.5 h
same,half-life time versus standard (in words),"[3]; rat, in vivo",longer half-life time
same,bioavailability,"[3]; rat, in vivo, po, 10 mg/kg",100%
same,intestinal resorption (in words),[3]; rats,"quickly, completely, and dosage-linearly"
same,acute toxicity versus comparison standard (in words),[4]; acute intragastral administration,considerably less toxic
same,LD50 at 168 h,"[4]; mouse, in vivo, po, acute intragastral, n=4, 7-day observation",1600 mg/kg
same,tumor growth (in words),[5]; 7.0 mg/kg/day,completely inhibited further growth of colon carcinoma
same,T/C,"[5]; 7.0 mg/kg/day, gastric tube, 10 weeks",11.1%
same,tumor growth inhibition (in words),[5]; 11.9 mg/kg,the growth inhibition is much less
same,T/C,"[5]; 11.9 mg/kg, gastric tube, 10 weeks",about 5%
same,antineoplastic effect (in words),[5]; gastric tube,very efficient
Nc1ccccc1NC(=O)c1ccc(NC(=O)CO)cc1 [4-Glycoloylamino-N-(2'-aminophenyl)-benzamide],IC50,[1],0.62 mg/L
"Nc1ccc(C(=O)Nc2ccccc2N)cc1 [Compound B, 4-Amino-N-(2'-aminophenyl)-benzamide, reference compound]",IC50,[1],0.69 mg/L
same,IC50,L1210 tumor cells,2.78 mg/L
same,half-life,"[3]; rat, in vivo, po, 10 mg/kg",~0.25 h
same,tumor growth (in words),[5]; 5.9 mg/kg/day,arrest of tumor growth
same,relative median tumor volume T/C,"[5]; 5.9 mg/kg/day=26 μmol/kg/day, gastric tube, 10 weeks",10.6%
same,antineoplastic effect (in words),[5]; gastric tube,very efficient
Nc1ccccc1NC(=O)c1ccc(NC=O)cc1 [4-Formylamino-N-(2'-aminophenyl)-benzamide],IC50,[1],0.4 mg/L
